Laboratory results: ChEMBL document CHEMBL1135700, “Design, synthesis and activity of ascorbic acid prodrugs of nipecotic, kynurenic and diclophenamic acids, liable to increase neurotropic activity” (2002)

Columns and labels:
[1] = biological target: Solute carrier family 23 member 2 (Homo sapiens) (UniProt Q9UGH3); settings: 24 uM
Description: [14C]- AA uptake mediated by sodium-dependent ascorbate transporters, SVCT2 measured as Michaelis-Menten constant (Kt) at a concentration of 24 uM

[2] = biological target: Solute carrier family 23 member 2 (Homo sapiens) (UniProt Q9UGH3); settings: 12 uM
Description: [14C]- AA uptake mediated by sodium-dependent ascorbate transporters, SVCT2 measured as Michaelis-Menten constant (Kt) at a concentration of 12 uM

[3] = biological target: Solute carrier family 23 member 2 (Homo sapiens) (UniProt Q9UGH3); settings: 120 uM
Description: [14C]- AA uptake mediated by sodium-dependent ascorbate transporters, SVCT2 measured as Michaelis-Menten constant (Kt) at a concentration of 120 uM

[4] = biological target: Solute carrier family 23 member 2 (Homo sapiens) (UniProt Q9UGH3); settings: 6 uM
Description: [14C]- AA uptake mediated by sodium-dependent ascorbate transporters, SVCT2 measured as Michaelis-Menten constant (Kt) at a concentration of 6 uM

[5] = biological target: Solute carrier family 23 member 2 (Homo sapiens) (UniProt Q9UGH3); settings: 60 uM
Description: [14C]- AA uptake mediated by sodium-dependent ascorbate transporters, SVCT2 measured as Michaelis-Menten constant (Kt) at a concentration of 60 uM

[6] = tested on: O=C(O)Cc1ccccc1Nc1c(Cl)cccc1Cl; settings: 12 uM
Description: ([14C]- AA) and its uptake mediated by sodium-dependent ascorbate transporters, SVCT2 measured as Maximum velocity (Vmax) at concentration of 12 uM

[7] = tested on: O=C(O)Cc1ccccc1Nc1c(Cl)cccc1Cl; settings: 120 uM
Description: ([14C]- AA) and its uptake mediated by sodium-dependent ascorbate transporters, SVCT2 measured as Maximum velocity (Vmax) at concentration of 120 uM

[8] = tested on: O=C(O)Cc1ccccc1Nc1c(Cl)cccc1Cl; settings: 24 uM
Description: ([14C]- AA) and its uptake mediated by sodium-dependent ascorbate transporters, SVCT2 measured as Maximum velocity (Vmax) at concentration of 24 uM

[9] = tested on: O=C(O)Cc1ccccc1Nc1c(Cl)cccc1Cl; settings: 6 uM
Description: ([14C]- AA) and its uptake mediated by sodium-dependent ascorbate transporters, SVCT2 measured as Maximum velocity (Vmax) at concentration of 6 uM

[10] = tested on: O=C(O)Cc1ccccc1Nc1c(Cl)cccc1Cl; settings: 60 uM
Description: ([14C]- AA) and its uptake mediated by sodium-dependent ascorbate transporters, SVCT2 measured as Maximum velocity (Vmax) at concentration of 60 uM

| Kt [1] | Kt [2] | Kt [3] | Kt [4] | Kt [5] | Molecule | Vmax (nM hr-1 (10e6*cells)-1) [6] | Vmax (nM hr-1 (10e6*cells)-1) [7] | Vmax (nM hr-1 (10e6*cells)-1) [8] | Vmax (nM hr-1 (10e6*cells)-1) [9] | Vmax (nM hr-1 (10e6*cells)-1) [10] |
| --- | --- | --- | --- | --- | --- | --- | --- | --- | --- | --- |
| 31 µM | 29 µM | 28 µM | 32 µM | 29 µM | O=C(O)Cc1ccccc1Nc1c(Cl)cccc1Cl | – | – | – | – | – |
| – | – | – | – | – | Solute carrier family 23 member 2 (Homo sapiens), Q9UGH3 | 2 | 0.26 | 1.4 | 3.1 | 0.49 |
